pIC50: −log10 of the molar value.
Columns and labels:
[1] = test system: SW620 cells (homozygous KRAS-G12V activating mutation); experiment: Cellular phospho-ERK assay in G12V cell line; assay type: cell-based; conditions: Homo sapiens, SW-620, 2 hours compound incubation, ratio of p-ERK vs. total ERK, read-out: SW620 pERK IC50
Description: Procedure for Cellular Phospho-ERK Assay in G12D and G12V Cell Lines
PANC08.13 cells (ATCC® CRL-2551™), containing homozygous KRAS-G12D activating mutation, were cultured in growth medium made of RPMI1640-GlutaMAX™—I (ThermoFisher Scientific 61870) containing 15% heat inactivated fetal bovine serum (ThermoFisher Scientific 10091148)). SW620 cells (ATCC® […]), containing homozygous KRAS-G12V activating mutation, were cultured in growth medium that contains RPMI 1640-GlutaMAX™—I (ThermoFisher Scientific 61870) containing 10% heat inactivated fetal bovine serum (ThermoFisher Scientific 10091148).
Cells for the assay were harvested in growth medium after TrypLE (ThermoFisher scientific 12604021) digestion and were seeded in a 384-well collagen coated cell culture plate (Corning 356702) at a density of 10,000-15,000 cells/20 uL/well, and incubated at 37° C., 5% CO2 overnight. The compound (with 10 mM stock concentration) dose-response titrations were prepared [30 μM final ERK detection assay concentration and 1:3 dilutions, 10-point dose response] and appropriate amounts (270 nL) of test compounds were dispensed in a 384-well intermediate plate using an Echo 550 liquid handler. 30 uL/well of RPMI medium 1640-GlutaMAX™—I was added to the intermediate plate and the contents of the intermediate plate (10 uL/well) were then transferred to the 384-well collagen coated cell culture plate, which was incubated at 37° C., 5% CO2 for 2 hours. After removal of medium from the collagen coated cell culture plate, cells were lysed in lysis buffer from Alpha SureFire® Ultra™ Multiplex p-ERK and total ERK assay kit (PerkinElmer MPSU-PTERK) containing Halt™ Protease and Phosphatase inhibitor cocktail (ThermoFisher Scientific 78446) at room temperature with constant shaking at 300 rpm for 30 minutes. The cell lysates were then transferred to an OptiPlate-384 plate (PerkinElmer 6005620), and the phosphorylation of ERK (p-ERK) and total ERK levels were detected by Alpha SureFire® Ultra™ Multiplex p-EEK kit and total ERK assay kit (PerkinElmer MPSU-PTERK) following the manufacturer's protocol. Assay plates were read on a EnVision Multimode Plate Reader (PerkinElmer), and the ratio of p-ERK vs. total ERK in each well was used as the final readout. Dose response curves were analyzed using a 4-parameter logistic model to calculate IC50 values using Spotfire software.

[2] = biological target: T1, KRAS-G12D (Homo sapiens, UniProt P01116, G12D); experiment: SOS-catalyzed nucleotide exchange assay (Procedure A, TR-FRET); assay type: biochemical; conditions: 60 min preincubation, SOS + GTP, read-out: KRAS G12D GNE IC50
T1 construct: N-terminal biotin-acceptor peptide […]
T1 sequence (P01116 with tags, fused parts or gaps isoform P01116-2 G12D): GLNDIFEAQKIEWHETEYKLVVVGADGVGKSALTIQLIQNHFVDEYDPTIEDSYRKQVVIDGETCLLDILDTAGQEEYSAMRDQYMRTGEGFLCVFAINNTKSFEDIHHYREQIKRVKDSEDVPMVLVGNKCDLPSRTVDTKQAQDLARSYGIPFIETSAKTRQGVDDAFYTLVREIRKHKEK
Summary of the method: (§1)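 Preformed biotinylated RAS–Bodipy-GDP/Tb-streptavidin complex preincubated with compound 60 min at room temperature, then SOS plus GTP (3 mM final) added. Exchange times: G13D 30 min, G12C/D 60 min, G12V 90 min. Final RAS/SOS: G12C 3 nM/40 nM, G12D 1 nM/40 nM, G12V 1.25 nM/160 nM, G13D 1.25 nM/0 nM. TR-FRET 520/495 ratio, four-parameter fit.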

[3] = biological target: T2, KRAS-G12V (Homo sapiens, UniProt P01116, G12V); experiment: as above; assay type: biochemical; conditions: 60 min preincubation, SOS + GTP, read-out: KRAS G12V GNE IC50
T2 construct: N-terminal biotin-acceptor peptide […]
T2 sequence (P01116 with tags, fused parts or gaps isoform P01116-2 G12V): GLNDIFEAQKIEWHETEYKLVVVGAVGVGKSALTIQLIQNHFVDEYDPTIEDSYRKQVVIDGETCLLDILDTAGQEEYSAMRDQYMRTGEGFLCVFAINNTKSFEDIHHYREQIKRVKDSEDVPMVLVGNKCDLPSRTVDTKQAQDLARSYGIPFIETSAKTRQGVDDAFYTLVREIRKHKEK
Summary of the method: as §1

[4] = biological target: T3, KRAS-G13D (Homo sapiens, UniProt P01116, G13D); experiment: as above; assay type: biochemical; conditions: 60 min preincubation, GTP, read-out: KRAS G13D GNE IC50
T3 construct: N-terminal biotin-acceptor peptide […]
T3 sequence (P01116 with tags, fused parts or gaps isoform P01116-2 G13D): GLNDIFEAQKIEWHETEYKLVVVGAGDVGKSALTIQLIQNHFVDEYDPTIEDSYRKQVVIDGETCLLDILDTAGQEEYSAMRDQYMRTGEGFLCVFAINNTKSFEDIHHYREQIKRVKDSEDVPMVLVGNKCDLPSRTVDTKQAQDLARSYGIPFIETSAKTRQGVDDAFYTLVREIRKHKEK
Summary of the method: as §1

[5] = biological target: T4, KRAS-G12C (C51S/C80L/C118S) (Homo sapiens, UniProt P01116, C118S/C51S/C80L/G12C); experiment: as above; assay type: biochemical; conditions: 60 min preincubation, SOS + GTP, read-out: KRAS G12C GNE IC50
T4 construct: N-terminal biotin-acceptor peptide […]
T4 sequence (P01116 with tags, fused parts or gaps isoform P01116-2 G12C/C51S/C80L/C118S): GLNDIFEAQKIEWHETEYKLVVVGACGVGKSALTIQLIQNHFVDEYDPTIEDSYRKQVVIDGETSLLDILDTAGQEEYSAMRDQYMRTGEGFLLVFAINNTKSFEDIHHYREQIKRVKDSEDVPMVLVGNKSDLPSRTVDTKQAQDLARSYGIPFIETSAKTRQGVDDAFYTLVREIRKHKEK
Summary of the method: as §1

[6] = test system: PANC08.13 cells (homozygous KRAS-G12D activating mutation); experiment: Cellular phospho-ERK assay in G12D cell line; assay type: cell-based; conditions: Homo sapiens, PANC-08-13, 2 hours compound incubation, ratio of p-ERK vs. total ERK, read-out: PANC 0813 pERK IC50
Summary of the method: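 Cells (10,000-15,000/well) were seeded overnight, then treated for 2 h at 37 °C with a 10-point 1:3 titration from 30 μM final. Lysates were assayed by AlphaLISA SureFire Ultra multiplex, with the p-ERK/total-ERK ratio as read-out; IC50 came from a 4-parameter logistic fit.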

[7] = biological target: NRAS (Homo sapiens, UniProt P01111); experiment: SOS-catalyzed nucleotide exchange assay (Procedure A, TR-FRET); assay type: biochemical; conditions: 60 min preincubation, SOS + GTP, read-out: NRAS GNE IC50
NRAS, sequence (P01111 with tags, fused parts or gaps): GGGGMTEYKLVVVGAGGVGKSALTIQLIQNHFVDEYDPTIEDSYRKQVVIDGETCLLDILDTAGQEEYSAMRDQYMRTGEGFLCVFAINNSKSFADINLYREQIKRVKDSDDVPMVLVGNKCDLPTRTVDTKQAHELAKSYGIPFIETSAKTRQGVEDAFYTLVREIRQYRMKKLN
Summary of the method: (§2)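 Biotinylated WT-sequence HRAS or NRAS (1.25 nM final) loaded with Bodipy-GDP plus Tb-streptavidin, preincubated 60 min with compound (10-point, 3-fold). Exchange started with human SOS (40 nM) and 3 mM GTP, 60 min at room temperature, pH 7.5 Mg buffer. TR-FRET 520/495 ratio normalised to DMSO and saturating inhibitor, four-parameter fit.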

[8] = biological target: HRAS (Homo sapiens, UniProt P01112); experiment: as above; assay type: biochemical; conditions: 60 min preincubation, SOS + GTP, read-out: HRAS GNE IC50
HRAS, sequence (P01112 with tags, fused parts or gaps): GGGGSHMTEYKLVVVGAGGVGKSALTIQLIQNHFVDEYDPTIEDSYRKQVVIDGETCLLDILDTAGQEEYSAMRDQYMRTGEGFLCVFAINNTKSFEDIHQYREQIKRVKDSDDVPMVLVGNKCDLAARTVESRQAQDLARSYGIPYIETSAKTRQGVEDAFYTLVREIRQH
Summary of the method: as §2

Row | SMILES | pIC50 [1] | pIC50 [2] | pIC50 [3] | pIC50 [4] | pIC50 [5] | pIC50 [6] | pIC50 [7] | pIC50 [8]
1 | C[C@@H]1CCOCCN1c1nc(OC[C@@]23CCCN2C[C@H](F)C3)nc2c(F)c(-c3ccc(F)c4sc(N)c(C#N)c34)c(Cl)cc12 [compound 7, 2-amino-4-(6-chloro-8-fluoro-2-(((2R,7aS)-2-fluorotetrahydro-1H-pyrrolizin-7a(5H)-yl)methoxy)-4-((R)-5-methyl-1,4-oxazepan-4-yl)quinazolin-7-yl)-7-fluorobenzo[b]thio-phene-3-carbonitrile] | 7.17 | 8.04 | 8.22 | 8.07 | 7.88 | 6.72 | < 4.96 | < 4.96
2 | CC1COCCN(c2nc(OC[C@@]34CCCN3C[C@H](F)C4)nc3c(F)c(-c4ccc(F)c5sc(N)c(C#N)c45)c(Cl)cc23)C1 (stereo partly drawn) [compound 8, 2-amino-4-(6-chloro-8-fluoro-2-(((2R,7aS)-2-fluorotetrahydro-1H-pyrrolizin-7a(5H)-yl)methoxy)-4-(6-methyl-1,4-oxazepan-4-yl)quinazolin-7-yl)-7-fluorobenzo[b]thio-phene-3-carbonitrile] | 6.98 | 8.00 | 8.12 | 7.89 | 7.68 | 6.86 | < 4.96 | < 4.96
3 | CC1CN(c2nc(OC[C@@]34CCCN3C[C@H](F)C4)nc3c(F)c(-c4ccc(F)c5sc(N)c(C#N)c45)c(Cl)cc23)CCCO1 (stereo partly drawn) [compound 9, 2-amino-4-(6-chloro-8-fluoro-2-(((2R,7aS)-2-fluorotetrahydro-1H-pyrrolizin-7a(5H)-yl)methoxy)-4-(2-methyl-1,4-oxazepan-4-yl)quinazolin-7-yl)-7-fluorobenzo[b]thio-phene-3-carbonitrile] | 7.00 | 7.61 | 8.21 | 8.06 | 7.64 | 6.81 | < 4.96 | < 4.96
4 | CC1CCN(c2nc(OC[C@@]34CCCN3C[C@H](F)C4)nc3c(F)c(-c4ccc(F)c5sc(N)c(C#N)c45)c(Cl)cc23)CCO1 (stereo partly drawn) [compound 10, 2-amino-4-(6-chloro-8-fluoro-2-(((2R,7aS)-2-fluorotetrahydro-1H-pyrrolizin-7a(5H)-yl)methoxy)-4-(7-methyl-1,4-oxazepan-4-yl)quinazolin-7-yl)-7-fluorobenzo[b]thio-phene-3-carbonitrile] | 6.27 | 6.15 | 7.38 | 6.96 | 7.33 | 5.58 | < 4.96 | < 4.96
5 | N#Cc1c(N)sc2c(F)ccc(-c3c(Cl)cc4c(N5CCOCC(F)C5)nc(OC[C@@]56CCCN5C[C@H](F)C6)nc4c3F)c12 (stereo partly drawn) [compound 11, 2-amino-4-(6-chloro-8-fluoro-4-(6-fluoro-1,4-oxazepan-4-yl)-2-(((2R,7aS)-2-fluorotetrahydro-1H-pyrrolizin-7a(5H)-yl)methoxy)quinazo-lin-7-yl)-7-fluorobenzo[b]thio-phene-3-carbonitrile] | 7.66 | 8.08 | 8.19 | 8.16 | 7.74 | 7.40 | < 4.96 | < 4.96
6 | N#Cc1c(N)sc2c(F)ccc(-c3c(Cl)cc4c(N5CCOCC(F)(F)C5)nc(OC[C@@]56CCCN5C[C@H](F)C6)nc4c3F)c12 [compound 12, 2-amino-4-(6-chloro-4-(6,6-difluoro-1,4-oxazepan-4-yl)-8-fluoro-2-(((2R,7aS)-2-fluorotetrahydro-1H-pyrrolizin-7a(5H)-yl)methoxy)quinazo-lin-7-yl)-7-fluorobenzo[b]thio-phene-3-carbonitrile] | 7.48 | 7.47 | 7.94 | 7.89 | 7.71 | 7.12 | < 4.96 | < 4.96
7 | CC1(F)COCCN(c2nc(OC[C@@]34CCCN3C[C@H](F)C4)nc3c(F)c(-c4ccc(F)c5sc(N)c(C#N)c45)c(Cl)cc23)C1 (stereo partly drawn) [compound 13, 2-amino-4-(6-chloro-8-fluoro-4-(6-fluoro-6-methyl-1,4-oxazepan-4-yl)-2-(((2R,7aS)-2-fluorotetrahydro-1H-pyrrolizin-7a(5H)-yl)methoxy)quinazo-lin-7-yl)-7-fluorobenzo[b]thio-phene-3-carbonitrile] | 6.82 | 7.33 | 7.98 | 7.66 | 7.49 | 6.68 | < 4.96 | < 4.96
8 | CC(C)(C)NC[C@@]1(COc2nc(N3CCCOCC3)c3cc(Cl)c(-c4ccc(F)c5sc(N)c(C#N)c45)c(F)c3n2)CC1(F)F [compound 25, 2-amino-4-(2-(((R)-1-((tert-butylamino)methyl)-2,2-difluorocyclopropyl)methoxy)-6-chloro-8-fluoro-4-(1,4-oxazepan-4-yl)quinazolin-7-yl)-7-fluorobenzo[b]thiophene-3-carbonitrile] | 6.39 | 6.61 | 7.75 | 7.28 | 7.54 | 5.88 | < 4.96 | < 4.96
9 | CC(C)NC[C@@]1(COc2nc(N3CCCOCC3)c3cc(Cl)c(-c4ccc(F)c5sc(N)c(C#N)c45)c(F)c3n2)CC1(F)F [compound 26, 2-amino-4-(6-chloro-2-(((R)-2,2-difluoro-1-((isopropylamino)meth-yl)cyclopropyl)meth-oxy)-8-fluoro-4-(1,4-oxazepan-4-yl)quinazolin-7-yl)-7-fluorobenzo[b]thiophene-3-carbonitrile] | 6.45 | 6.75 | 7.65 | 7.23 | 7.26 | 6.00 | < 4.96 | < 4.96
10 | CC1(NC[C@@]2(COc3nc(N4CCCOCC4)c4cc(Cl)c(-c5ccc(F)c6sc(N)c(C#N)c56)c(F)c4n3)CC2(F)F)CCC1 [compound 28, 2-amino-4-(6-chloro-2-(((R)-2,2-difluoro-1-(((1-methylcyclobutyl)ami-no)methyl)cyclopropyl)methoxy)-8-fluoro-4-(1,4-oxazepan-4-yl)quinazolin-7-yl)-7-fluorobenzo[b]thiophene-3-carbonitrile] | 6.06 | 5.73 | 7.00 | 6.59 | 7.11 | 5.62 | < 4.96 | < 4.96
